Measured values reported in patent US20030203908A1, “Dihydrofolate reductase inhibitors” (priority 2000, published 2003).
Converted amounts (≈) assume the structure as drawn.

Key:
[1] = target: T1, wild-type (wt) DHFR from Plasmodium falciparum (Plasmodium falciparum, UniProt P13922, N108S/R59C); assay: Inhibition of wild-type pfDHFR (spectrophotometric, Ki); format: biochemical; settings: Ki(wt) nM;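 further: Affinity-purified enzyme, initial reaction rates measured across a range of inhibitor concentrations, Ki obtained by nonlinear least-squares fitting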
T1 construct: The Dihydrofolate Reductase Domain of Plasmodium falciparum Thymidylate Synthase-Dihydrofolate Reductase; made in house
T1 sequence (P13922 10-228 R59C/N108S): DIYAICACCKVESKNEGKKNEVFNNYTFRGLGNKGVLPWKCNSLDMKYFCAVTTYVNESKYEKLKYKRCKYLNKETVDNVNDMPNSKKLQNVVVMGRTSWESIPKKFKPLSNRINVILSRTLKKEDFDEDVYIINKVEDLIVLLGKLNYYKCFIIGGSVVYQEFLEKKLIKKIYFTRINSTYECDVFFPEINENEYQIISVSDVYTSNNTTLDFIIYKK
Description: (§1) For determination of the Ki values of a number of synthesized analogues, the assay reactions were initiated with affinity-purified enzyme (^˜0.005-0.01 U ml^−1), and the initial velocities in the presence of varying concentrations of inhibitors were analysed by non-linear least square fit using Kaleidagraph™ software.

[2] = target: T2, A16V.S108T mutant (mut) of DHFR from Plasmodium falciparum (Plasmodium falciparum, UniProt A7UD81, A16V/S108T); assay: biochemical
T2 construct: The Dihydrofolate Reductase Domain of Plasmodium falciparum Thymidylate Synthase-Dihydrofolate Reductase; made in house
T2 sequence (A7UD81 1-231 A16V/S108T): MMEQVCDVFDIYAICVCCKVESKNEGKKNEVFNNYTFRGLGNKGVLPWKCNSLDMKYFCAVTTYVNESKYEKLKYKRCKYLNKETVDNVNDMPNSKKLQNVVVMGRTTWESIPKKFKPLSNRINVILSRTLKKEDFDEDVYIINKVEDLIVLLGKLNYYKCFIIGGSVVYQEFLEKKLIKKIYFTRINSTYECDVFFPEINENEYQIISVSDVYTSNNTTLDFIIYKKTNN
Description: as §1

[3] = tested on: A16V.S108T mutant (mut) of DHFR from Plasmodium falciparum; assay: biochemical; settings: resistance factor
Description: as §1

[4] = tested on: wild-type (TM4/8.2) strain of P. falciparum; assay: microbe, parasite or virus in culture; format: cell-based, Plasmodium falciparum; settings: Plasmodium falciparum; wild-type strain TM4/8.2
Description: Mol. Biochem. Parasitol. […] Science, 1976, 193, 673-675]. In vitro antimalarial activity was determined by using [^3H]-hypoxanthine incorporation method [Desjardins, R. E.; Canfield, C. J.; Haynes, J. D.; Chulay, J. D. Quantitative assessment of antimalarial activity in vitro by a semiautomated microdilution technique. Antimicrob Agents Chemother. 1979, 16, 710-718]. The drugs were initially dissolved in DMSO and diluted with the culture media. Aliquots (25 μl) of drug solution of different concentrations was placed in 96-well plate together with 200 μl of 1.5% cell suspension of parasitized erythrocytes containing 1-2% parasitemia. Final concentration of DMSO was 0.1% where there was no effect on the parasite growth. The mixtures were incubated in a 3% CO2 incubator at 37° C. After 24 h of incubation, 25 μl (0.25 μCi) of [^3H]-hypoxanthine were added to each well. The mixtures were further incubated under the same condition for 18-24 h. DNA of parasites was harvested onto glass filter paper (Unifilter, Packard, USA). The filters were dried and liquid scintillation fluid was added for radioactivity measurement in a 6-probe liquid scintillation-counter (Packard, USA).

[5] = target: T3, DHFR-TS from Trypanosoma cruzi (Trypanosoma cruzi, UniProt Q27793); assay: Inhibition of T. cruzi DHFR-TS (I50-derived Ki);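 on all read-outs here: enzymes were recombinant T. cruzi DHFR-TS and human DHFR, both expressed in E. coli and purified on a methotrexate affinity column, with dihydrofolate and NADPH as substrates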; format: biochemical; settings: for Selectivity: human Ki / T. cruzi Ki
T3 construct: pET 11c with the insertion of the complete ORF of the gene tc-dhfrts; made in house; host or cells: E. coli BL21 (DE3)
T3 sequence (Q27793 whole entry): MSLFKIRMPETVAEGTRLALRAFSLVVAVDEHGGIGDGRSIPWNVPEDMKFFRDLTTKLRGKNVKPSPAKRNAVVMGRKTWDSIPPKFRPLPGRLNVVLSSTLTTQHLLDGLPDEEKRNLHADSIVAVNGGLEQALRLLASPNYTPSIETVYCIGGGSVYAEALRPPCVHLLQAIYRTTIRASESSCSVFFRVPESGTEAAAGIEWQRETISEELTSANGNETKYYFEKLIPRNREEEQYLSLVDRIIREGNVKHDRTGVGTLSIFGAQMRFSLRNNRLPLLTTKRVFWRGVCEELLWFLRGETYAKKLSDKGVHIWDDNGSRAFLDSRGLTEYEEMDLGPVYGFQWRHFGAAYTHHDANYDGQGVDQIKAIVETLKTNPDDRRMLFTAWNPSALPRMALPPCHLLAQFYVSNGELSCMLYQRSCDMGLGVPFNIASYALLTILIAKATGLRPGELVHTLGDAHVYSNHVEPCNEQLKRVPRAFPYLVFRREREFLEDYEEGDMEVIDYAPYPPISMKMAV

human DHFR [6] = target: T4, human DHFR (Homo sapiens, UniProt P00374); assay: Inhibition of human DHFR (I50-derived Ki); format: biochemical; settings: Human Ki (I50)(nM);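 further: recombinant human DHFR expressed in E. coli and purified by methotrexate affinity chromatography, enzyme activity followed spectrophotometrically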
T4 construct: made in house; host or cells: E. coli M15
T4 sequence (P00374 1-187): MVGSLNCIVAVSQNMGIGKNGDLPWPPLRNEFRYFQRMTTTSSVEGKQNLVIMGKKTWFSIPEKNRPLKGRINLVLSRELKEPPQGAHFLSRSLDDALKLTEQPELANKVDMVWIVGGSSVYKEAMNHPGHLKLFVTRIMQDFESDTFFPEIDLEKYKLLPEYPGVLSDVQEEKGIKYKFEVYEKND
Description: (§2) Folic acid and NADPH, were purchased from Sigma. Dihydrofolate was prepared from folic acid dithionate reduction. Methotrexate (MTX) was from Lederle Laboratories. MTX sepharose CL-6B was prepared according to the protocol described by Dann. et al. IPTG came from Boehringer Manheim. The expression system used for recombinant human DHFR production, which includes the plasmid PB-E1/RB SII, SphI-HDHFR expressed in E. coli M15, was supplied by Santi, D. V (Department of Biochemistry and Biophysics and Department of Pharmaceutical Chemistry, University of California). Recombinant T. Cruzi DHFR-TS was produced using the system pET 11c with the insertion of the complete ORF of the gene tc-dhfrts. The resulting plasmid was called pET DT.
(§3) Human and T.cruzi DHFR were produced using inducible expression systems. For human DHFR, fresh overnight cultures of E. coli M15, transformed with the plasmid, pB-E1/RB SII, SphI-HDHFR, were grown in LB and 0.1 mg/ml ampicillin medium at 28° C. For T.cruzi DHFR-TS, cultures of E. coli, BL21 (DE3) transformed with the plasmid pETDT system were grown at 37° C. The same purification protocol was used for both systems. When OD600 was at 0.8, cells pellets were collected by centrifugation, suspended in 50 ml of LB medium, containing 0.1 mg/ml of ampicillin. 10 ml of this preinocule was added to 2 litres of LB medium. Cultures were shaken at 28° C. or 37° C. (for human and T. cruzi DHFR respectively) and induction with IPTG ImM was performed when OD600 reached 0.8. After IPTG induction, cells were grown overnight in a shaker at 28° C. or 5 hours at 28° C. or 37° C. (for human and T. cruzi DHFR respectively) and then harvested by centrifugation.
(§4) Cell pellets were suspended in sonication buffer (2× TES DHFR:TES 100 mM, 2-mercaptoethanol 150 mM, EDTA 2 mM pH=7) containing protease inhibitors.
(§5) Crude extract was circulated through the MTX-Sepharose column at 4° C. at a flow rate of 0.2 ml/min until the protein was bound to the resin. The column was washed with an excess of buffer B (KH2PO410 mM pH 7, KC1 1M). Protein was eluted at 0.2 min/ml with an elution buffer (100 mM TES, 10 mM DTT, 2 mM EDTA, DHF 8.5 mM), the elution profile was collected in 1 ml fractions using a Pharmacia LKB Frac 200 collector. Finally, the protein was desalted using molecular size exclusion chromatography in a Pharmacia G-25 column. Fractions containing DHFR activity were pooled and concentrated by ultrafiltration using centripreps Amicon.
(§6) The purity of the protein preparation was assessed by detection of a single band of the correct molecular weight stained with coomasie blue following a 12% SDS-PAGE. Protein concentration was determined by the method of Bradford using a BSA as a standard. DHFR activity was measured spectrophotometrically by monitoring the decrease in absorbance at 340 mm. […] One unit of enzyme, is defined as the amount of enzyme which produces 1 nmol of product per min using ε of 12300M^−1 at 340 nm.
(§7) Inhibition of dihydrofolate reductases by 1,2-dihydro-1,3,5 triazines was analysed with T. cruzi and human DHFR.
(§8) DHFR assays contained 30 mM dihydrofolate, 0.1 mM NADPH, 50 mM TES buffer pH 7, 75 mM 2-mercaptoethanol and specified amounts of inhibitors. The reaction was initiated by addition of 2.8 or 2.3 units of T. cruzi and human, respectively, and monitored at 340 nm.
(§9) Selective inhibition of dihydrofolate reductase by 1,2-dihydro-1,3,5-triazines was analysed with T. cruzi and human DHFR. DHFR assays contained 30 μM dihydrofolate, 0.1 mM NADPH, 50 mM TES buffer pH 7, 75 mM β-mercaptoethanol and specified amounts of inhibitors. The reaction was initiated by addition of 2.8 or 2.3 units of T. cruzi and human enzyme, respectively, and monitored at 340 nm. […] KiI 50=[I]0.5/((1+[S])/Km)

[7] = tested on: P. falciparum 3D7 (wild-type strain); assay: In vitro inhibition of P. falciparum 3D7; format: cell-based, Plasmodium falciparum; settings: Plasmodium falciparum, 3D7 strain, read-out: Pf-3D7 ED50
human DHFR [8] = assay: Inhibition of human DHFR (I50-derived Ki); format: biochemical;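 further: recombinant human DHFR expressed in E. coli and purified by methotrexate affinity chromatography, enzyme activity followed spectrophotometrically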
Description: as §2, §3, §4, §5, §6, §7, §8, §9

[9] = tested on: P. falciparum FCR3 (resistant strain containing the A16V.S108T DHFR mutant); assay: In vitro inhibition of P. falciparum FCR3; format: cell-based, Plasmodium falciparum; settings: Plasmodium falciparum; in vitro, FCR3 strain; read-out: Pf-FCR3 ED50

SMILES | Ki [1] [nM] | Ki [2] [nM] | Ki(mut)/Ki(wt) [3] | IC50 [4] [nM] | Ki [5] [nM] | Selectivity [5] | Ki (human DHFR [6]; human DHFR) [nM] | IC50 [7] [µg/mL] | Ki (human)/Ki (P. falc. mut) (human DHFR [8]) | Ki (human)/Ki (P. falc. wt) (human DHFR [8]) | Ki (human)/Ki (T. cruzi) (human DHFR [8]) | IC50 [9] [µg/mL] | Ki (human DHFR [6]) [nM]
NC1=NC(c2ccc(OCc3ccccc3)cc2)N(c2ccc(Cl)cc2)C(N)=N1 (stereo not drawn) [(Ia) R2=p-benzyloxyphenyl] | 0.6 | 4.4 | 7.3 | 107 | 13 | 85 | 1110 | 0.26 (≈ 0.641 µM) |  |  |  |  | 
COc1ccc(C2N=C(N)N=C(N)N2c2ccc(Cl)cc2)cc1 (stereo not drawn) [(Ia) R2=p-methoxyphenyl, 1-p-chlorophenyl-2-p-methoxyphenyl-4,6-diamino-1,2-dihydro-1,3,5-triazine] | 11.4 ± 1.5 | 129 ± 25 | 11.3 | 424 | 26 | 212 | 5530 |  | 42.9 | 485 | 212 |  | 
NC1=NC(c2cccc(OCc3ccccc3)c2)N(c2ccc(Cl)cc2)C(N)=N1 (stereo not drawn) [(Ia) R2=m-benzyloxyphenyl] | 0.7 | 6.2 | 8.8 | 832 |  |  |  | 0.18 (≈ 0.443 µM) |  |  |  | 0.62 (≈ 1.53 µM) | 
COc1ccc(Oc2cccc(C3N=C(N)N=C(N)N3c3ccc(Cl)cc3)c2)cc1 (stereo not drawn) [(Ia) R2=3-(4-methoxyphenoxyl)phenyl] | 0.7 | 6.6 | 9.4 | 2880 | 48 | 17 | 830 | 5.19 (≈ 12.3 µM) |  |  |  | 1.25 (≈ 2.96 µM) | 
CC(C)c1ccc(C2N=C(N)N=C(N)N2c2ccc(Cl)cc2)cc1 (stereo not drawn) [(Ia) R2=p-isopropylphenyl, 1-p-chlorophenyl-2-p-isopropylphenyl-4,6-diamino-1,2-dihydro-1,3,5-triazine] | 1.9 ± 0.6 | 15.2 ± 1.6 | 8.0 | 973 | 60 | 167 | 10000 |  | 661 | 5289 | 167 |  | 
NC1=NC(c2ccc(F)cc2)N(c2ccc(Cl)cc2)C(N)=N1 (stereo not drawn) [(Ia) R2=p-fluorophenyl] | 8.6 ± 1.4 | 130 ± 17 | 15.1 | 359 | 1010 | 10 | 10600 |  | 81 | 1227 | 10.4 |  | 
NC1=NC(c2ccc(Oc3ccccc3)cc2)N(c2ccc(Cl)cc2)C(N)=N1 (stereo not drawn) [(Ia) R2=p-phenoxyphenyl, 1-p-chlorophenyl-2-p-phenoxyphenyl-4,6-diamino-1,2-dihydro-1,3,5-triazine] | 0.4 | 3.8 | 9.5 | 121 | 3 | 376 | 1130 | 0.07 (≈ 0.179 µM) |  |  |  | 0.2 (≈ 0.51 µM) | 
NC1=NCN(c2cccc(Cc3ccccc3)c2)C(N)=N1 [R2=H, X=H, Y=Bn] | 9.4 ± 0.4 | 6 ± 0.1 | 0.6 | 403 | 29 | 2.3 | 66 |  | 11 | 7.0 | 2.27 |  | 
CCCCOc1ccc(C2N=C(N)N=C(N)N2c2ccc(OCc3ccccc3)cc2)cc1 (stereo not drawn) [1-p-benzyloxyphenyl-2-p-n-butoxyphenyl-4,6-diamino-1,2-dihydro-1,3,5-triazine] | 0.8 ± 0.1 | 6.6 ± 0.6 | 8.2 | 384 | 49 | 4.1 | 203 |  | 31 | 253 | 4.1 |  | 
CC(C)(C)c1ccc(Oc2cccc(C3N=C(N)N=C(N)N3c3cccc(Cl)c3)c2)cc1 (stereo not drawn) [(Ib) R2=3-(4-t-butylphenoxy)phenyl] | 7.7 ± 0.5 | 5.6 ± 0.9 | 0.7 | 5040 |  |  |  | > 0.3 |  |  |  | 0.47 (≈ 1.05 µM) | 
NC1=NC(c2ccc(-c3ccccc3)cc2)N(c2ccc(Cl)cc2)C(N)=N1 (stereo not drawn) [(Ia) R2=4-biphenyl] | 1.3 ± 0.1 | 8.5 | 6.5 | 621 |  |  |  | 2.2 (≈ 5.85 µM) |  |  |  | 0.68 (≈ 1.81 µM) | 
NC1=NC(c2cccc(OCc3ccccc3)c2)N(c2cccc(Cl)c2)C(N)=N1 (stereo not drawn) [(Ib) R2=3-benzyloxyphenyl] | 2.3 ± 0.5 | 3.2 ± 0.2 | 1.4 | 3970 | 12 | 3.8 | 46 | 0.45 (≈ 1.11 µM) |  |  |  | 0.019 (≈ 0.0468 µM) | 
CC(C)(C)c1ccc(Oc2cccc(C3N=C(N)N=C(N)N3c3ccc(Cl)cc3)c2)cc1 (stereo not drawn) [(Ia) R2=3-(4-t-butylphenoxy)phenyl] | 1.7 | 9.9 ± 1.5 | 5.8 | 4120 | 112 | 7 | 770 | 0.75 (≈ 1.67 µM) |  |  |  | 0.26 (≈ 0.58 µM) | 
NC1=NCN(c2ccc(OCc3ccccc3)cc2)C(N)=N1 [R2=H, X=BnO, Y=H] | 22.4 ± 1.3 | 28.6 ± 2.2 | 1.3 | 690 | 10 | 4.4 | 44 |  | 1.54 | 1.96 | 4.44 |  | 
CCOc1ccc(C2N=C(N)N=C(N)N2c2ccc(Cl)cc2)cc1 (stereo not drawn) [(Ia) R2=p-ethoxyphenyl, 1-p-chlorophenyl-2-p-ethoxyphenyl-4-6-diamino-1,2-dihydro-1,3,5-triazine] | 1.5 ± 0.2 | 36 ± 6 | 24.3 | 181 | 70 | 25 | 1730 |  | 48 | 1153 | 24.7 |  | 
CCCCOc1ccc(C2N=C(N)N=C(N)N2c2ccc(Cl)cc2)cc1 (stereo not drawn) [(Ia) R2=p-butyloxyphenyl, 1-p-chlorophenyl-2-p-n-butyloxyphenyl-4,6-diamino-1,2-dihydro-1,3,5-triazine] | 1 ± 0.1 | 5 | 5.0 | 287 | 26 | 15 | 400 | 0.14 (≈ 0.376 µM) | 80 | 400 | 15.3 | 0.091 (≈ 0.245 µM) | 
Cl.NC1=NCN(c2ccc(Cl)cc2)C(N)=N1 [(Ia) R2=H, 1-(4′-Chlorophenyl)-4,6-diamino-1,2-dihydro-1,3,5-triazine hydrochloride] | 24.4 ± 4.3 | 649 ± 77 | 26 | 952 | 16 | 76 |  | 0.04 | 1.9 | 49.7 | 75.7 | 0.13 | 1210
NC1=NC(c2cccc(Oc3ccccc3)c2)N(c2ccc(Cl)cc2)C(N)=N1 (stereo not drawn) [(Ia) R2=m-phenoxyphenyl, 1-p-chlorophenyl-2-m-phenoxyphenyl-4,6-diamino-1,2-dihydro-1,3,5-triazine] | 0.5 | 2.7 | 5.4 | 367 | 21 | 9 | 190 | 0.28 (≈ 0.715 µM) |  |  |  | 0.32 (≈ 0.817 µM) | 
